Experimental data taken from patent US20090130273A1, “FREEZE DRIED SUCRALOSE” (TATE & LYLE TECHNOLOGY LIMITED, priority 2007, published 2009).

What was measured:
[1] = Moisture absorption as a function of relative humidity; assay type: physicochemical; details: for moisture absorption behaviour compared with the other samples: RH ramp 0 to 80 % and back down to 20 %
Description: Sucralose beads prepared from seeded and unseeded aqueous sucralose solutions using the liquid nitrogen technique described above were evaluated to determine degree of moisture absorption as a function of relative humidity (% RH). A sample of commercial sucralose needles (“neat” sucralose) was also evaluated in parallel, and the results for these runs are shown in Table 1. Each column represents a ramping up of % RH from zero to 80, followed by ramping back down to 20.

[2] = Thermogravimetric analysis, stability at high temperature; assay type: physicochemical; details: mass as a function of time at 90° C. in nitrogen
Description: Thermogravimetric analysis was performed on commercial, seeded and unseeded samples made as described above in order to assess stability of the products at high temperature. The results are shown in FIGS. 4, 5 and 6, respectively. In each case, the mass of a sample was followed as a function of time at 90° C. in nitrogen, recorded as percent of original mass remaining. The vertical lines represent the point of the mass curve representing the halfway point of mass loss, and thus may be used as a measure of how rapidly decomposition set in. […] This further bears out the fact, noted above in view of the moisture absorption results, that these samples represent three different forms of sucralose.

Mass Increase (%) ([1]; 0 % RH, start of upward ramp)	Mass Increase (%) ([1]; 20 % RH, ramping back down)	Mass Increase (%) ([1]; 20 % RH, ramping up)	Mass Increase (%) ([1]; 30 % RH, ramping back down)	Mass Increase (%) ([1]; 30 % RH, ramping up)	Mass Increase (%) ([1]; 40 % RH, ramping back down)	Mass Increase (%) ([1]; 40 % RH, ramping up)	Mass Increase (%) ([1]; 50 % RH, ramping back down)	Mass Increase (%) ([1]; 50 % RH, ramping up)	Mass Increase (%) ([1]; 60 % RH, ramping back down)	Mass Increase (%) ([1]; 60 % RH, ramping up)	Mass Increase (%) ([1]; 70 % RH, ramping back down)	Mass Increase (%) ([1]; 70 % RH, ramping up)	Mass Increase (%) ([1]; 80 % RH, top of ramp)	onset of decomposition (halfway point of mass loss) ([2]; listed as seeded product)	moisture absorption behaviour compared with the other samples ([1]; listed as unseeded product)	onset of decomposition (halfway point of mass loss) ([2]; listed as unseeded product)	Mass Increase (%) ([1]; 80 % RH, top of ramp, listed as neat (commercial) product)	Structure (SMILES)	moisture absorption behaviour compared with the other samples ([1]; listed as seeded product)	onset of decomposition (halfway point of mass loss) ([2]; listed as commercial sample)
0	0.02	0.01	0.02	0.02	0.02	0.02	0.03	0.02	0.03	0.03	0.04	0.03	0.04	took considerably longer				OCC1O[C@@H](O[C@]2(CCl)O[C@@H](CCl)C(O)C2O)C(O)C(O)[C@H]1Cl (stereo partly drawn) [Seeded, 4,1′,6′-trichloro-4,1′,6′-trideoxygalactosucrose]	maximum value was less than half of that seen with the commercial product	
0.00	0.60	1.09	0.81	2.21	1.15	3.41	2.01	4.91	2.91	6.21	4.11	6.71	7.11		significantly higher moisture absorption	intermediate between the two		OCC1O[C@@H](O[C@]2(CCl)O[C@@H](CCl)C(O)C2O)C(O)C(O)[C@H]1Cl (stereo in doubt) [Not Seeded, 4,1′,6′-trichloro-4,1′,6′-trideoxygalactosucrose]		
0.00	0.00	0.00	0.00	0.00	0.00	0.00	0.00	0.00	0.00	0.00	0.00	0.00	0.10				0.1	OCC1O[C@@H](O[C@]2(CCl)O[C@@H](CCl)C(O)C2O)C(O)C(O)[C@H]1Cl (stereo partly drawn) [Neat, 4,1′,6′-trichloro-4,1′,6′-trideoxygalactosucrose, reference compound]		earliest to show significant decomposition
